Legend:
[1] = target: T1, recombinant human Meningioma Expressed Antigen 5 (MGEA5), also referred to as O-GlcNAcase (OGA) (Homo sapiens, UniProt O60502); test: OGA biochemical assay: inhibition of hydrolysis of fluorescein mono-ß-D-N-Acetyl-Glucosamine (FM-GlcNAc), fluorescence readout; conditions: FM-GlcNAc substrate; for Emax: read-out: Enzymatic Emax (%); for IC50: read-out: Enzymatic hOGA, pIC50 (converted)
T1 construct: Full length OGA enzyme was purchased at OnGene (cat #TP322411); purchased OnGene (so in the source)
T1 sequence (O60502 1-916): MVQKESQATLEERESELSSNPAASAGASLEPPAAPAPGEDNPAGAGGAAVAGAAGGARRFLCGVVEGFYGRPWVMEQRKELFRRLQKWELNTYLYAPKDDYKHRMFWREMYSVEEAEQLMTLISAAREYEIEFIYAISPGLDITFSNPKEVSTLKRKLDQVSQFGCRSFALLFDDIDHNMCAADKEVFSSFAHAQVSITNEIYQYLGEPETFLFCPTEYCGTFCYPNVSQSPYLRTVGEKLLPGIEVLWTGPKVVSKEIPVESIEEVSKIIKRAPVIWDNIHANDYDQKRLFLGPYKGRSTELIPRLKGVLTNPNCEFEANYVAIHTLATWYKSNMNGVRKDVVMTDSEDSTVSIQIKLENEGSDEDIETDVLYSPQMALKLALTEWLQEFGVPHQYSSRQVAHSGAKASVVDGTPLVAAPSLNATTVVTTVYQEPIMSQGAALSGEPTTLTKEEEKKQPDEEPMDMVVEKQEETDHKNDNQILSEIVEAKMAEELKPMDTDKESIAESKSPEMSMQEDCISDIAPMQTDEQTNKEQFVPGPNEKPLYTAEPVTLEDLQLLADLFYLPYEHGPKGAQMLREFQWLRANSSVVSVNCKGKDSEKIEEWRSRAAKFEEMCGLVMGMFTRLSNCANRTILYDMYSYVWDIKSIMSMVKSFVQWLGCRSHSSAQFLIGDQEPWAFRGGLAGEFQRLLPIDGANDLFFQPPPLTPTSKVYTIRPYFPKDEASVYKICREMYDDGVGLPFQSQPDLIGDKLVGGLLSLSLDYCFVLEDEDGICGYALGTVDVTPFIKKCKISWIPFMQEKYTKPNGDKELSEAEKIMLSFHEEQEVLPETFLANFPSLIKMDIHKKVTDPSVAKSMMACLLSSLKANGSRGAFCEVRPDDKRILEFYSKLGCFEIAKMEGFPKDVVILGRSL
From the text: The assay is based on the inhibition of the hydrolysis of fluorescein mono-ß-D-N-Acetyl-Glucosamine (FM-GlcNAc) (Mariappa et al. 2015, Biochem J 470:255) by the recombinant human Meningioma Expressed Antigen 5 (MGEA5), also referred to as O-GlcNAcase (OGA). The hydrolysis FM-GlcNAc (Marker Gene technologies, cat #M1485) results in the formation of ß-D-N-glucosamineacetate and fluorescein. The fluorescence of the latter can be measured at excitation wavelength 485 nm and emission wavelength 538 nm. An increase in enzyme activity results in an increase in fluorescence signal. Full length OGA enzyme was purchased at OnGene (cat #TP322411). The enzyme was stored in 25 mM Tris.HCl, pH 7.3, 100 mM glycine, 10% glycerol at −20° C. Thiamet G and GlcNAcStatin were tested as reference compounds (Yuzwa et al. 2008 Nature Chemical Biology 4:483; Yuzwa et al. 2012 Nature Chemical Biology 8:393). The assay was performed in 200 mM Citrate/phosphate buffer supplemented with 0.005% Tween-20. 35.6 g Na2HPO4 2 H2O (Sigma, #C0759) were dissolved in 1 L water to obtain a 200 mM solution. 19.2 g citric acid (Merck, #1.06580) was dissolved in 1 L water to obtain a 100 mM solution. pH of the sodium phosphate solution was adjusted with the citric acid solution to 7.2. The buffer to stop the reaction consists of a 500 mM Carbonate buffer, pH 11.0. 734 mg FM-GlcNAc were dissolved in 5.48 mL DMSO to obtain a 250 mM solution and was stored at −20° C. OGA was used at a 2 nM concentration and FM-GlcNAc at a 100 uM final concentration. Dilutions were prepared in assay buffer. 50 nl of a compound dissolved in DMSO was dispensed on Black Proxiplate™ 384 Plus Assay plates (Perkin Elmer, #6008269) and 3 μl fl-OGA enzyme mix added subsequently. Plates were pre-incubated for 60 min at room temperature and then 2 μl FM-GlcNAc substrate mix added. […] Plates were briefly centrifuged for 1 min at 1000 rpm and incubate at room temperature for 6 h. To stop the reaction 5 μl STOP buffer were added and plates centrifuge again 1 min at 1000 rpm. Fluorescence was quantified in the Thermo Scientific Fluoroskan Ascent or the PerkinElmer EnVision with excitation wavelength 485 nm and emission wavelength 538 nm. For analysis a best-fit curve is fitted by a minimum sum of squares method. From this an IC50 value and Hill coefficient was obtained. High control (no inhibitor) and low control (saturating concentrations of standard inhibitor) were used to define the minimum and maximum values.

[2] = system: OGA in HEK293 cells inducible for P301L mutant human Tau (isoform 2N4R); test: OGA cellular assay: immunocytochemical detection of O-GlcNAcylated proteins (CTD110.6 antibody); format: cell-based; conditions: 6 hours incubation; for Emax / EC50: Homo sapiens, HEK293, 6 h; for EC50: read-out: Cellular hOGA, pEC50 (converted)
Method: HEK293 cells inducible for P301L mutant human Tau (isoform 2N4R) were established at Janssen. Thiamet-G was used for both plate validation (high control) and as reference compound (reference EC50 assay validation). OGA inhibition is evaluated through the immunocytochemical (ICC) detection of O-GlcNAcylated proteins by the use of a monoclonal antibody (CTD110.6; Cell Signaling, #9875) detecting 0-GlcNAcylated residues as previously described (Dorfmueller et al. 2010 Chemistry & biology, 17:1250). Inhibition of OGA will result in an increase of O-GlcNAcylated protein levels resulting in an increased signal in the experiment. Cell nuclei are stained with Hoechst to give a cell culture quality control and a rough estimate of immediate compounds toxicity, if any. ICC pictures are imaged with a Perkin Elmer Opera Phenix plate microscope and quantified with the provided software Perkin Elmer Harmony 4.1.
Cells were propagated in DMEM high Glucose (Sigma, #D5796) following standard procedures. 2 days before the cell assay cells are split, counted and seeded in Poly-D-Lysine (PDL) coated 96-wells (Greiner, #655946) plate at a cell density of 12,000 cells per cm^2 (4,000 cells per well) in 100p of Assay Medium (Low Glucose medium is used to reduce basal levels of GlcNAcylation) (Park et al. 2014 The Journal of biological chemistry 289:13519). At the day of compound test medium from assay plates was removed and replenished with 90 µl of fresh Assay Medium. 10p of compounds at a 10 fold final concentration were added to the wells. Plates were centrifuged shortly before incubation in the cell incubator for 6 hours. DMSO concentration was set to 0.2%. Medium is discarded by applying vacuum. For staining of cells medium was removed and cells washed once with 100 μl D-PBS (Sigma, #D8537). From next step onwards unless other stated assay volume was always 50p and incubation was performed without agitation and at room temperature. Cells were fixed in 50 μl of a 4% paraformaldehyde (PFA, Alpha aesar, #043368) PBS solution for 15 minutes at room temperature. […] Before analysis samples were washed 2 times manually for 5 minutes in ICC base buffer.
Imaging is performed using Perkin Elmer Phenix Opera using a water 20× objective and recording 9 fields per well. Intensity readout at 488 nm is used as a measure of O-GlcNAcylation level of total proteins in wells. To assess potential toxicity of compounds nuclei were counted using the Hoechst staining. IC50-values are calculated using parametric non-linear regression model fitting. As a maximum inhibition Thiamet G at a 200 uM concentration is present on each plate. In addition, a concentration response of Thiamet G is calculated on each plate.

SMILES	Emax [1]	IC50 [1]	Enzymatic Emax (%) [1]	Enzymatic hOGA; pIC50 [1]	Cellular hOGA; pEC50 [2]	Emax ([2]; maximum = Thiamet G 200 uM)	Cellular Emax (%) ([2]; maximum = Thiamet G 200 uM)	EC50 [2]
Cc1cncc(C)c1Nc1nccc2c1ccn2CC1CC1(F)F (centres unmarked) [Compound 1]	102%	151 nM				56%		708 nM
CCCCn1ccc2c(Nc3c(C)cncc3Cl)nccc21 [Compound 5]	101%			7.95		67%		67.6 nM
CCCCn1ccc2c(Nc3c(C)ccnc3C)nccc21 [Compound 6]	102%			8.16		89%		50.1 nM
FCCCCn1ccc2c(Nc3c(Cl)cccc3Cl)nccc21 [Compound 7]	103%			7.98		84%		214 nM
CCCCn1ccc2c(Nc3c(Cl)ccc4c3CCO4)nccc21 [Compound 8]	102%			8.11		87%		110 nM
CCC(C)Cn1ccc2c(Nc3c(Cl)cccc3Cl)nccc21.Cl (centres unmarked) [Compound 9]	105%			8.42		85%		30.2 nM
CCCCn1ccc2c(Nc3c(C)ccc4[nH]c(C)nc34)nccc21 [Compound 11]	100%			7.06		80%		288 nM
CCCCn1ccc2c(Nc3c(C)ccc4[nH]nnc34)nccc21 [Compound 12]	99%			7.31		64%		562 nM
CCCCn1ccc2c(Nc3c(C)ccc(C(=O)N4CCOCC4)c3C)nccc21 [Compound 13]	105%			8.49		87%		28.2 nM
CCCCn1ccc2c(Nc3c(Cl)ccc4c3ccn4C)nccc21 [Compound 14]	103%			8.54		80%		182 nM
CCCCn1ccc2c(Nc3c(C)ccc4cccnc34)nccc21 [Compound 15]	101%			7.18		71%		562 nM
CCC(C)Cn1ccc2c(Nc3c(C)ccnc3C)nccc21.Cl (centres unmarked) [Compound 16]	101%			7.83		85%		32.4 nM
CCCCn1ccc2c(Nc3c(Cl)cnc4c3OCCO4)nccc21 [Compound 18]	102%			7.46		62%		575 nM
CCCCn1ccc2c(Nc3c(C)cnnc3C(C)C)nccc21 [Compound 19]	102%			7.8		94%		83.2 nM

The next lines start with results.

Emax [1]	IC50 [1]	Enzymatic Emax (%) [1]	Enzymatic hOGA; pIC50 [1]	SMILES	Cellular hOGA; pEC50 [2]	Emax ([2]; maximum = Thiamet G 200 uM)	Cellular Emax (%) ([2]; maximum = Thiamet G 200 uM)	EC50 [2]
102%	5.89 nM			Cc1ccnc(C)c1Nc1nccc2c1ccn2CC1CCO1 (single isomer, unassigned) [Compound 25a]	7.3	92%		
	4.57 nM	101%		Cc1ccnc(C)c1Nc1nccc2c1ccn2CC1CCO1 (single isomer, unassigned) [Compound 25b]	7.63		90%	
102%			8.84	Cc1ccnc(C)c1Nc1nccc2c1ccn2CC(F)(F)C1CC1 [Compound 23]		97%		2.95 nM
104%	4.79 nM			Cc1ccnc(C)c1Nc1nccc2c1ccn2CC1CCO1 (centres unmarked) [Compound 25]		89%		38 nM
100%	191 nM			Cc1ccnc(C)c1Nc1nccc2c1ccn2CCC(C)(C)C#N [Compound 26]		64%		479 nM
104%	2.24 nM			CCC(F)(F)Cn1ccc2c(Nc3c(C)ccnc3C)nccc21 [Compound 27]		112%		7.59 nM
99%	302 nM			CCCCn1c(F)cc2c(Nc3c(C)cncc3C)nccc21 [Compound 31]		27%		> 1000 nM
99%	178 nM			CCCCn1cc(F)c2c(Nc3c(C)cncc3C)nccc21 [Compound 34]		36%		> 1000 nM
100%	148 nM			Clc1cccc(Cl)c1Nc1nccc2c1ccn2CC1COC1 [Compound 35]		20%		> 1000 nM
100%	115 nM			Cc1ccnc(C)c1Nc1nccc2c1ccn2CCC1COC1 [Compound 38]		63%		562 nM
102%	53.7 nM			CCCC(C)n1ccc2c(Nc3c(Cl)cccc3Cl)nccc21 (centres unmarked) [Compound 39]		56%		692 nM
102%	81.3 nM			COCCn1ccc2c(Nc3c(Cl)cccc3Cl)nccc21 [Compound 40]		30%		> 1000 nM
